{"source": "the supplement of paper PMC10307832", "assay_in_all_cases": "relative viability (nuclei count vs DMSO), 5 days (fraction); higher = more cells survive", "key": {"[1]": {"system": "NCI-H2228", "method_in_brief": "(§1)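 After 5 days of treatment, lung cancer cells in 1536-well plates were fixed and stained in a single step (final 0.05% Triton X-100, 1% formaldehyde, 1 ug/ml Hoechst) and their nuclei counted on 4× images. Treatment had been applied by pin tool the day after seeding as one drug alone or as a fixed anchor-drug dose with five library-drug doses (not always all listed) in √10 steps. Relative viability is the nuclei count of treated wells divided by that of vehicle wells, and values are medians of duplicate plates.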"}, "[2]": {"system": "NCI-H1755", "method_in_brief": "as §1"}, "[3]": {"system": "RERF-LC-KJ", "method_in_brief": "as §1"}, "[4]": {"system": "NCI-H1395", "method_in_brief": "as §1"}, "[5]": {"system": "NCI-H3122", "method_in_brief": "as §1"}, "[6]": {"system": "LOU-NH91", "method_in_brief": "as §1"}, "[7]": {"system": "NCI-H1793", "method_in_brief": "as §1"}, "[8]": {"system": "LU99A", "method_in_brief": "as §1"}, "[9]": {"system": "HCC-78", "method_in_brief": "as §1"}, "[10]": {"system": "ChaGo-K-1", "method_in_brief": "as §1"}, "[11]": {"system": "NCI-H1651", "method_in_brief": "as §1"}, "[12]": {"system": "ABC-1", "method_in_brief": "as §1"}, "[13]": {"system": "NCI-H460", "method_in_brief": "as §1"}, "[14]": {"system": "NCI-H2170", "method_in_brief": "as §1"}, "[15]": {"system": "PC-3 [JPC-3]", "method_in_brief": "as §1"}, "[16]": {"system": "UMC-11", "method_in_brief": "as §1"}, "[17]": {"system": "NCI-H2405", "method_in_brief": "as §1"}, "[18]": {"system": "NCI-H2087", "method_in_brief": "as §1"}, "[19]": {"system": "HCC-366", "method_in_brief": "as §1"}, "[20]": {"system": "CAL-12T", "method_in_brief": "as §1"}, "[21]": {"system": "LC-2-ad", "method_in_brief": "as §1"}, "[22]": {"system": "NCI-H1944", "method_in_brief": "as §1"}}}
{"molecule": "CCN(CC)CCCCNc1ncc2cc(-c3cc(OC)cc(OC)c3)c(NC(=O)NC(C)(C)C)nc2n1", "note": "+ O=C(c1cc(Cc2n[nH]c(=O)c3ccccc23)ccc1F)N1CCN(C(=O)C2CC2)CC1 [Olaparib] (partner 8 µM)", "values": [{"measurement": "relative viability", "setting": "[1]; first compound 0.01 µM", "result": 0.799}, {"measurement": "relative viability", "setting": "[1]; first compound 0.03162 µM", "result": 0.8}, {"measurement": "relative viability", "setting": "[1]; first compound 0.1 µM", "result": 0.824}, {"measurement": "relative viability", "setting": "[1]; first compound 0.3162 µM", "result": 0.547}, {"measurement": "relative viability", "setting": "[1]; first compound 1 µM", "result": 0.571}, {"measurement": "relative viability", "setting": "[2]; first compound 0.01 µM", "result": 0.874}, {"measurement": "relative viability", "setting": "[2]; first compound 0.03162 µM", "result": 0.947}, {"measurement": "relative viability", "setting": "[2]; first compound 0.1 µM", "result": 0.958}, {"measurement": "relative viability", "setting": "[2]; first compound 0.3162 µM", "result": 1.01}, {"measurement": "relative viability", "setting": "[2]; first compound 1 µM", "result": 0.934}, {"measurement": "relative viability", "setting": "[3]; first compound 0.01 µM", "result": 1.01}, {"measurement": "relative viability", "setting": "[3]; first compound 0.03162 µM", "result": 0.92}, {"measurement": "relative viability", "setting": "[3]; first compound 0.1 µM", "result": 1.12}, {"measurement": "relative viability", "setting": "[3]; first compound 0.3162 µM", "result": 1.05}, {"measurement": "relative viability", "setting": "[3]; first compound 1 µM", "result": 0.963}, {"measurement": "relative viability", "setting": "[4]; first compound 0.01 µM", "result": 0.46}, {"measurement": "relative viability", "setting": "[4]; first compound 0.03162 µM", "result": 0.467}, {"measurement": "relative viability", "setting": "[4]; first compound 0.1 µM", "result": 0.478}, {"measurement": "relative viability", "setting": "[4]; first compound 0.3162 µM", "result": 0.497}, {"measurement": "relative viability", "setting": "[4]; first compound 1 µM", "result": 0.431}, {"measurement": "relative viability", "setting": "[5]; first compound 0.01 µM", "result": 0.642}, {"measurement": "relative viability", "setting": "[5]; first compound 0.03162 µM", "result": 0.69}, {"measurement": "relative viability", "setting": "[5]; first compound 0.1 µM", "result": 0.68}, {"measurement": "relative viability", "setting": "[5]; first compound 0.3162 µM", "result": 0.647}, {"measurement": "relative viability", "setting": "[5]; first compound 1 µM", "result": 0.71}, {"measurement": "relative viability", "setting": "[6]; first compound 0.01 µM", "result": 0.895}, {"measurement": "relative viability", "setting": "[6]; first compound 0.03162 µM", "result": 0.9}, {"measurement": "relative viability", "setting": "[6]; first compound 0.1 µM", "result": 0.954}, {"measurement": "relative viability", "setting": "[6]; first compound 0.3162 µM", "result": 0.952}, {"measurement": "relative viability", "setting": "[6]; first compound 1 µM", "result": 0.884}, {"measurement": "relative viability", "setting": "[7]; first compound 0.01 µM", "result": 0.676}, {"measurement": "relative viability", "setting": "[7]; first compound 0.03162 µM", "result": 0.839}, {"measurement": "relative viability", "setting": "[7]; first compound 0.1 µM", "result": 1.23}, {"measurement": "relative viability", "setting": "[7]; first compound 0.3162 µM", "result": 0.926}, {"measurement": "relative viability", "setting": "[7]; first compound 1 µM", "result": 0.54}, {"measurement": "relative viability", "setting": "[8]; first compound 0.01 µM", "result": 0.249}, {"measurement": "relative viability", "setting": "[8]; first compound 0.03162 µM", "result": 0.288}, {"measurement": "relative viability", "setting": "[8]; first compound 0.1 µM", "result": 0.286}, {"measurement": "relative viability", "setting": "[8]; first compound 0.3162 µM", "result": 0.285}, {"measurement": "relative viability", "setting": "[8]; first compound 1 µM", "result": 0.245}, {"measurement": "relative viability", "setting": "[9]; first compound 0.01 µM", "result": 0.82}, {"measurement": "relative viability", "setting": "[9]; first compound 0.03162 µM", "result": 0.782}, {"measurement": "relative viability", "setting": "[9]; first compound 0.1 µM", "result": 0.802}, {"measurement": "relative viability", "setting": "[9]; first compound 0.3162 µM", "result": 0.94}, {"measurement": "relative viability", "setting": "[9]; first compound 1 µM", "result": 0.771}, {"measurement": "relative viability", "setting": "[10]; first compound 0.01 µM", "result": 0.444}, {"measurement": "relative viability", "setting": "[10]; first compound 0.03162 µM", "result": 0.416}, {"measurement": "relative viability", "setting": "[10]; first compound 0.1 µM", "result": 0.442}, {"measurement": "relative viability", "setting": "[10]; first compound 0.3162 µM", "result": 0.46}, {"measurement": "relative viability", "setting": "[10]; first compound 1 µM", "result": 0.388}, {"measurement": "relative viability", "setting": "[11]; first compound 0.01 µM", "result": 0.193}, {"measurement": "relative viability", "setting": "[11]; first compound 0.03162 µM", "result": 0.192}, {"measurement": "relative viability", "setting": "[11]; first compound 0.1 µM", "result": 0.175}, {"measurement": "relative viability", "setting": "[11]; first compound 0.3162 µM", "result": 0.203}, {"measurement": "relative viability", "setting": "[11]; first compound 1 µM", "result": 0.183}, {"measurement": "relative viability", "setting": "[12]; first compound 0.03162 µM", "result": 0.754}, {"measurement": "relative viability", "setting": "[12]; first compound 0.1 µM", "result": 1.04}, {"measurement": "relative viability", "setting": "[12]; first compound 0.3162 µM", "result": 0.93}, {"measurement": "relative viability", "setting": "[12]; first compound 1 µM", "result": 1.01}, {"measurement": "relative viability", "setting": "[13]; first compound 0.01 µM", "result": 0.462}, {"measurement": "relative viability", "setting": "[13]; first compound 0.03162 µM", "result": 0.514}, {"measurement": "relative viability", "setting": "[13]; first compound 0.1 µM", "result": 0.52}, {"measurement": "relative viability", "setting": "[13]; first compound 0.3162 µM", "result": 0.57}, {"measurement": "relative viability", "setting": "[13]; first compound 1 µM", "result": 0.43}, {"measurement": "relative viability", "setting": "[14]; first compound 0.01 µM", "result": 0.583}, {"measurement": "relative viability", "setting": "[14]; first compound 0.03162 µM", "result": 0.559}, {"measurement": "relative viability", "setting": "[14]; first compound 0.1 µM", "result": 0.655}, {"measurement": "relative viability", "setting": "[14]; first compound 0.3162 µM", "result": 0.676}, {"measurement": "relative viability", "setting": "[14]; first compound 1 µM", "result": 0.732}, {"measurement": "relative viability", "setting": "[15]; first compound 0.03162 µM", "result": 1.08}, {"measurement": "relative viability", "setting": "[15]; first compound 0.1 µM", "result": 1.29}, {"measurement": "relative viability", "setting": "[15]; first compound 0.3162 µM", "result": 1.19}, {"measurement": "relative viability", "setting": "[15]; first compound 1 µM", "result": 1.07}, {"measurement": "relative viability", "setting": "[16]; first compound 0.01 µM", "result": 0.39}, {"measurement": "relative viability", "setting": "[16]; first compound 0.03162 µM", "result": 0.372}, {"measurement": "relative viability", "setting": "[16]; first compound 0.1 µM", "result": 0.422}, {"measurement": "relative viability", "setting": "[16]; first compound 0.3162 µM", "result": 0.353}, {"measurement": "relative viability", "setting": "[16]; first compound 1 µM", "result": 0.422}, {"measurement": "relative viability", "setting": "[17]; first compound 0.01 µM", "result": 0.873}, {"measurement": "relative viability", "setting": "[17]; first compound 0.03162 µM", "result": 0.88}, {"measurement": "relative viability", "setting": "[17]; first compound 0.1 µM", "result": 1.03}, {"measurement": "relative viability", "setting": "[17]; first compound 0.3162 µM", "result": 0.952}, {"measurement": "relative viability", "setting": "[17]; first compound 1 µM", "result": 0.928}, {"measurement": "relative viability", "setting": "[18]; first compound 0.01 µM", "result": 0.581}, {"measurement": "relative viability", "setting": "[18]; first compound 0.03162 µM", "result": 0.599}, {"measurement": "relative viability", "setting": "[18]; first compound 0.1 µM", "result": 0.71}, {"measurement": "relative viability", "setting": "[18]; first compound 0.3162 µM", "result": 0.735}, {"measurement": "relative viability", "setting": "[18]; first compound 1 µM", "result": 0.476}, {"measurement": "relative viability", "setting": "[19]; first compound 0.01 µM", "result": 0.323}, {"measurement": "relative viability", "setting": "[19]; first compound 0.03162 µM", "result": 0.374}, {"measurement": "relative viability", "setting": "[19]; first compound 0.1 µM", "result": 0.362}, {"measurement": "relative viability", "setting": "[19]; first compound 0.3162 µM", "result": 0.405}, {"measurement": "relative viability", "setting": "[19]; first compound 1 µM", "result": 0.346}, {"measurement": "relative viability", "setting": "[20]; first compound 0.01 µM", "result": 0.678}, {"measurement": "relative viability", "setting": "[20]; first compound 0.03162 µM", "result": 0.78}, {"measurement": "relative viability", "setting": "[20]; first compound 0.1 µM", "result": 0.829}, {"measurement": "relative viability", "setting": "[20]; first compound 0.3162 µM", "result": 0.845}, {"measurement": "relative viability", "setting": "[20]; first compound 1 µM", "result": 0.763}, {"measurement": "relative viability", "setting": "[21]; first compound 0.01 µM", "result": 0.776}, {"measurement": "relative viability", "setting": "[21]; first compound 0.03162 µM", "result": 0.744}, {"measurement": "relative viability", "setting": "[21]; first compound 0.1 µM", "result": 0.787}, {"measurement": "relative viability", "setting": "[21]; first compound 0.3162 µM", "result": 0.788}, {"measurement": "relative viability", "setting": "[21]; first compound 1 µM", "result": 0.668}, {"measurement": "relative viability", "setting": "[22]; first compound 0.01 µM", "result": 0.363}, {"measurement": "relative viability", "setting": "[22]; first compound 0.03162 µM", "result": 0.415}, {"measurement": "relative viability", "setting": "[22]; first compound 0.1 µM", "result": 0.474}, {"measurement": "relative viability", "setting": "[22]; first compound 0.3162 µM", "result": 0.428}, {"measurement": "relative viability", "setting": "[22]; first compound 1 µM", "result": 0.394}]}
